Reference: patent publication US9926306B2, “Inhibition of MCL-1 and/or BFL-1/A1” (Dana-Farber Cancer Institute, Inc., priority 2012, dated 2018)
Entries after “also recorded” stand apart in the source; their conditions may differ.

Legend:
MCL-1ΔNΔC = MCL-1ΔNΔC (Homo sapiens (Human), UniProt Q07820); experiment: Competitive fluorescence polarization binding assay, MCL-1; settings: Table A
Method: Here, we deployed MCL-1 SAHBA as a high fidelity screening tool to determine if its potency and specificity-of-action could be harnessed for small molecule discovery. […] A compilation of 71,296 small molecules was screened for the capacity to displace FITC-MCL-1 SAHBA from recombinant MCL-1ΔNΔC (aa 172-327) (FIG. 4).
Fluorescence polarization assays (FPA) were performed as previously described^38,39. […] Fluorescence polarization was measured at equilibrium and IC50 values calculated by nonlinear regression analysis of competitive binding curves using Prism software (Graphpad).

BFL-1/A1ΔC = BFL-1/A1ΔC (Homo sapiens (Human), UniProt Q16548); experiment: Competitive fluorescence polarization binding assay, BFL-1/A1 (FITC-BID BH3); settings: Table A
BFL-1/A1ΔC, sequence (Q16548 1-153): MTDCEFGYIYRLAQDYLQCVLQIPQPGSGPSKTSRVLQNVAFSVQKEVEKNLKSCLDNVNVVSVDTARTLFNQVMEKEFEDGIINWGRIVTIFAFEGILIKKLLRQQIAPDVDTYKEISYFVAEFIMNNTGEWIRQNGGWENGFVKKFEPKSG
Text: FIG. 19A and FIG. 19B are graphs that show potent targeting of the anti-apoptotic protein BFL-1/A1 by MIM1. […] Thus, the complex between FITC-BID BH3 and BFL-1/A1ΔC was employed in a competitive FP assay to monitor the capacity of MIM1 to target BFL-1/A1ΔC.

[1] = system: parental p185+Arf−/− CML cells; experiment: Cell viability and CalcuSyn synergy, parental leukemia cells; format: cell-based, murine; settings: Mus musculus; parental cells expressing both MCL-1 and BCL-XL; read-out: IC50, cytotoxicity
Method: (§1) p185^+Arf^−/− and MCL-1 or BCL-XL-rescued p185^+Arf^−/−Mcl^−/− cells were maintained in RPMI 1640 (ATCC) supplemented with 10% (v/v) FBS, 100 U/mL penicillin, 100 μg/mL streptomycin, 0.1 mM MEM non-essential amino acids and 50 μM β-mercaptoethanol. Mouse embryonic fibroblasts (MEFs) cells were maintained in DMEM high glucose (Invitrogen) supplemented with 10% (v/v) FBS, 100 U/mL penicillin, 100 μg/mL streptomycin, 2 mM L-glutamine, 50 mM HEPES, 0.1 mM MEM non-essential amino acids and 50 μM β-mercaptoethanol. […] Cell viability was assayed at 24 h by addition of CellTiter-Glo reagent according to the manufacturer's protocol (Promega), and luminescence was measured using a SpectraMax M5 microplate reader (Molecular Devices). Caspase 3/7 activation was assayed at 8 h by addition of Caspase-Glo 3/7 reagent according to manufacturer's protocol (Promega), and luminescence measured using a SpectraMax M5 microplate reader. Viability and caspase assays were performed in duplicate, repeated at least twice with independent cell cultures, and the data normalized to vehicle-treated control wells.

[2] = system: wild-type or Bax−/−Bak−/− MEFs; experiment: Caspase 3/7 activation (Caspase-Glo), MEFs; format: cell-based, mouse; settings: 8 h
Method: as §1

[3] = system: wild-type or Bax−/−Bak−/− MEFs; experiment: Cell viability (CellTiter-Glo), MEFs; format: cell-based, mouse; settings: non-malignant fibroblasts, 24 h
Method: as §1

BCL-XLΔC = BCL-XLΔC (Homo sapiens (Human), UniProt Q07817); experiment: Competitive fluorescence polarization binding assay, BCL-XL; settings: tracer FITC-BID BH3; read-out: IC50, displacement of FITC-BID BH3 from BCL-XLΔC
BCL-XLΔC, sequence (Q07817 1-212): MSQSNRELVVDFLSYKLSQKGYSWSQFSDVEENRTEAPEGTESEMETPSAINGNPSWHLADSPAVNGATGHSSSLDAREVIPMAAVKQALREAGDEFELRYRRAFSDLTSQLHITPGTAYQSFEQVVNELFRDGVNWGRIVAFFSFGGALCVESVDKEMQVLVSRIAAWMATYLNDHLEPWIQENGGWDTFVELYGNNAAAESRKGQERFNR

[4] = system: MCL-1-rescued p185+Arf−/−Mcl-1−/− CML cells; experiment: Cell viability (CellTiter-Glo), MCL-1-dependent leukemia cells; format: cell-based, murine; settings: Mus musculus; MCL-1-dependent cells, 24 h
Text: A challenges in developing and applying molecular antagonists for BCL-2 family anti-apoptotic proteins is the variable expression of multiple homologues. That is, a cancer cell will only be susceptible to a selective anti-apoptotic inhibitor if the cell is especially dependent on that particular survival protein. […] To test MIM1's activity and specificity in cancer cells, we employed murine p185^+Arf^−/−Mcl-1^−/− chronic myelogenous leukemia (CML) cells that are unable to survive unless reconstituted with MCL-1, reflecting a stringent system for assessing MCL-1 dependence.
p185^+Arf^−/− and MCL-1 or BCL-XL-rescued p185^+Arf^−/−Mcl^−/− cells were maintained in RPMI 1640 (ATCC) supplemented with 10% (v/v) FBS, 100 U/mL penicillin, 100 μg/mL streptomycin, 0.1 mM MEM non-essential amino acids and 50 μM β-mercaptoethanol. […] Cell viability was assayed at 24 h by addition of CellTiter-Glo reagent according to the manufacturer's protocol (Promega), and luminescence was measured using a SpectraMax M5 microplate reader (Molecular Devices). Caspase 3/7 activation was assayed at 8 h by addition of Caspase-Glo 3/7 reagent according to manufacturer's protocol (Promega), and luminescence measured using a SpectraMax M5 microplate reader. […]

MCL-1ΔNΔC, sequence (Q07820 172-327, stated change not applied): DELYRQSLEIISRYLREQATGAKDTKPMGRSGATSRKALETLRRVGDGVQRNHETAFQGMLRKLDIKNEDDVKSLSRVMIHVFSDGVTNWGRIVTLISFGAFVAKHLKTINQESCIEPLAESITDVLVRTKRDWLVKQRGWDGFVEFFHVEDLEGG

Row | Structure (SMILES) | IC50 (MCL-1ΔNΔC) | IC50 (BFL-1/A1ΔC) | also measured
1 | CCOc1ccccc1/N=c1\scc(C)n1/N=C/c1ccc(O)c(O)c1O [183-24] | 16000 nM | 2500 nM | 
2 | CC(C)(C)c1cs/c(=N\C2CCCCC2)n1/N=C/c1cc(O)c(O)c(O)c1 [183-88] | 1160 nM | 759 nM | 
3 | CC(C)C(C)/N=c1\scc(C2CC2)n1/N=C/c1cc(O)c(O)cc1O (stereo not drawn) [187-39] | 7300 nM | 1100 nM | 
4 | Oc1ccc(/C=N/N2/C(=N/C3CCCCC3)SCC2(O)C(F)(F)F)c(O)c1O (stereo not drawn) [183-51] | 2900 nM | 1200 nM | 
5 | Cc1cs/c(=N\CC2CCCCC2)n1/N=C/c1ccc(O)c(O)c1O [187-5] | 2700 nM | 1100 nM | 
6 | Oc1ccc(/C=N/n2c3c(s/c2=N\C2CCCCC2)CCCC3)c(O)c1O [183-81] | 4500 nM | 1300 nM | 
7 | Oc1ccc(/C=N/n2c(C3CC3)cs/c2=N\C2CCCC2)c(O)c1O [183-22] | 2400 nM | 601 nM | 
8 | Cc1cs/c(=N\C2CCCCC2)n1/N=C/c1cc(O)c(O)c(O)c1 [183-84] | 13000 nM | 316 nM | 
9 | Cc1cs/c(=N\C2CCCc3ccccc32)n1/N=C/c1cc(O)c(O)cc1O (stereo not drawn) [187-22] | 1410 nM | 144 nM | 
10 | Cc1s/c(=N\C2CCN(C(=O)OC(C)(C)C)CC2)n(/N=C/c2ccc(O)c(O)c2O)c1C1CC1 [187-50] |  | 735 nM | 
11 | CC(C)(C)Cc1cs/c(=N\C2CCCCC2)n1/N=C/c1ccc(O)c(O)c1O [183-70] | 1970 nM | 1500 nM | 
12 | Cc1cs/c(=N\c2ccccc2)n1/N=C/c1ccc(O)c(O)c1 [187-82] | 13300 nM | 8100 nM | 
13 | Oc1ccc(/C=N/n2c(-c3cccs3)cs/c2=N\C2CCCCC2)c(O)c1O [183-76] | 11000 nM | 388 nM | 
14 | CC(C)(C)c1cs/c(=N\C2CCCCC2)n1/N=C/c1cc(O)c(O)cc1O [183-87] | 151 nM | 42 nM | 
15 | CC(C)(C)c1cs/c(=N\C2CCCCC2)n1/N=C/c1cc(O)c(O)cc1F [187-10] |  | 9100 nM | 
16 | Cc1cs/c(=N\C2CCCCC2)n1/N=C/c1ccc(O)c(O)c1 [183-38] | 12000 nM | 282 nM | 
17 | CC(C)(C)c1cs/c(=N\C2CCCCC2)n1/N=C/c1ccc(O)c(O)c1O [183-44] | 540 nM | 914 nM | 
18 | CC(C)(C)c1cs/c(=N\C2CCCCC2)n1/N=C/c1ccc(O)c(O)c1 [183-65] | 17700 nM | 2100 nM | 
19 | CCc1s/c(=N\C2CCCCC2)n(/N=C/c2ccc(O)c(O)c2O)c1C(C)(C)C [187-37] |  | 2800 nM | 
20 | Cc1cs/c(=N\C(C)C(C)C)n1/N=C/c1ccc(O)c(O)c1O (stereo not drawn) [187-20] | 1780 nM | 2100 nM | 
21 | COc1cc(/C=N/n2c(C(C)(C)C)cs/c2=N\C2CCCCC2)c(O)cc1O [190-4] |  | 15000 nM | 
22 | Oc1ccc(/C=N/NC(=S)NC2CCCCC2)c(O)c1O [178-72] | 16000 nM | 5100 nM | 
23 | Oc1ccc(/C=N/n2c(C3CC3)cs/c2=N\c2ccccc2)cc1O [187-95] |  | 3000 nM | 

Row | Structure (SMILES) | IC50 (MCL-1ΔNΔC) | IC50 (BFL-1/A1ΔC) | also measured
24 | Cc1s/c(=N\C2CCCCC2)n(/N=C/c2ccc(O)c(O)c2O)c1C [183-8] | 1500 nM | 712 nM | 
25 | Cc1cs/c(=N\C2CCCCC2)n1/N=C/c1cc(O)c(O)cc1F [187-8] |  | 8400 nM | 
26 | Oc1ccc(/C=N/n2c(-c3cccs3)cs/c2=N\c2ccccc2)c(O)c1O [190-18] |  | 1700 nM | 
27 | Cc1cs/c(=N\C2CC3CCC2C3)n1/N=C/c1cc(O)c(O)cc1O (stereo not drawn) [183-82] | 1000 nM | 169 nM | 
28 | Cc1cs/c(=N\C2CCCCC2)n1/N=C/c1c(O)cc(O)cc1O [187-81] |  | 31000 nM | 
29 | Cc1cs/c(=N\C2CC3CCC2C3)n1/N=C/c1cc(O)c(O)cc1O (stereo not drawn) [187-79] | 937 nM | 272 nM | 
30 | Cc1cs/c(=N\c2ccccc2)n1/N=C/c1ccc(O)c(O)c1O [183-20] |  | 264 nM | 
31 | Cc1s/c(=N\C2CCCCC2)n(/N=C/c2cc(O)c(O)cc2O)c1C [183-89] | 780 nM | 581 nM | 
32 | CCOC(=O)c1s/c(=N\C2CCCCC2)n(/N=C/c2ccc(O)c(O)c2O)c1C [183-91] | 11800 nM | 381 nM | 
33 | Cc1s/c(=N\C2CCCCC2)n(/N=C/c2cc(O)c(O)cc2O)c1C1CC1 [187-44] | 587 nM | 117 nM | 
34 | Oc1cc(O)c(/C=N/n2c(C3CC3)cs/c2=N\C2CCCCC2)cc1O [187-7] | 123 nM | 26 nM | 
35 | CC(C)C(C)/N=c1\scc(C(C)(C)C)n1/N=C/c1ccc(O)c(O)c1O (stereo not drawn) [187-27] | 4300 nM | 1500 nM | 
36 | Oc1ccc(/C=N/n2c(C3CC3)cs/c2=N\C2CCCCC2)c(O)c1O [178-83] | 910 nM | 785 nM | 
37 | CCc1cs/c(=N\C2CCCCC2)n1/N=C/c1ccc(O)c(O)c1O [178-82] | 2100 nM | 1200 nM | 
38 | COc1cc(/C=N/n2c(C)cs/c2=N\C2CCCCC2)cc(OC)c1OC [183-85] | 7600 nM |  | 
39 | Oc1ccc(/C=N/n2c(C3CC3)cs/c2=N\c2ccccc2)c(O)c1O [183-21] | 4300 nM | 719 nM | 
40 | COC(=O)Cc1cs/c(=N\C2CCCCC2)n1/N=C/c1ccc(O)c(O)c1O [178-97] | 9500 nM | 1000 nM | 
41 | Cc1cs/c(=N\C2CCCCC2)n1/N=C/c1ccc(O)c(O)c1O [MIM1, 4-((E)-(((Z)-2-(cyclohexylimino)-4-methylthiazol-3(2H)-yl)imino)methyl)benzene-1,2,3-triol] |  |  | IC50 [1]: 10600 nM; caspase 3/7 activation [2]: no observed caspase 3/7 activation; effect on viability / toxicity [3]: little to no toxicity; also recorded: no significant effect; IC50 (BCL-XLΔC): > 50000 nM; IC50 [4]: 4200 nM
42 | CC(C)C(C)/N=C1\SCC(Br)(C2CC2)N1/N=C/c1cc(O)c(O)cc1O (stereo not drawn) [187-19] | 891 nM |  | 
43 | Cc1cs/c(=N\C2CCCC2)n1/N=C/c1ccc(O)c(O)c1O [183-19] | 3100 nM | 631 nM | 
44 | Cc1cs/c(=N\C2CCCc3ccccc32)n1/N=C/c1ccc(O)c(O)c1O (stereo not drawn) [187-23] | 4360 nM | 1100 nM | 
45 | Oc1ccc(/C=N/n2c(C3CC3)cs/c2=N\c2ccccc2)c(O)c1O [190-20] |  | 365 nM | 
